Data from PMC11507523, “Development of Malate Biosensor-Containing Hydrogels and Living Cell-Based Sensors” (International Journal of Molecular Sciences, 2024).

Biological target: T1, CitT (Escherichia coli, UniProt P0AE74)
T1 construct: CitT co-expressed with Malon in E. coli BL21 cells
T1 sequence (P0AE74 1-487): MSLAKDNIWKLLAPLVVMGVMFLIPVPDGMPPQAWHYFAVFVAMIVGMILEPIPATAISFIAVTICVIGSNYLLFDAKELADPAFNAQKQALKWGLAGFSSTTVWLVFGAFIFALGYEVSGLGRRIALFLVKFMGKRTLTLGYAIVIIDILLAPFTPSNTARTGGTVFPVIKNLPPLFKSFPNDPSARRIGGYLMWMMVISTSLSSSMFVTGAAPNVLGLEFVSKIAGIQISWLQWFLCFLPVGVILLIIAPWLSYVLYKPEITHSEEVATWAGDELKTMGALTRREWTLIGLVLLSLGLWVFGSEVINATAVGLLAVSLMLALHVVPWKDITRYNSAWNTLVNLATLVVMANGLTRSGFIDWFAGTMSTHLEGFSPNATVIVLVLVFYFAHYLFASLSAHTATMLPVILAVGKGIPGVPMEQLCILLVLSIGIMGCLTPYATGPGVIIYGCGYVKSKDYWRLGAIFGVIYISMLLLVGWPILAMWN
Assay: CitT-dependent malate uptake in E. coli, Malon fluorescence by flow cytometry
Assay type: cell-based

O=C(O)C[C@H](O)C(=O)O [malate]
CitT-dependent malate uptake in E. coli, Malon fluorescence by flow cytometry: Without the CitT transporter, little to no change in fluorescence was observed upon addition of malate
